This is an account of results in ChEMBL document CHEMBL3507680, “University of Dundee, Gates Library screen for HepG2 cell viability”.

The structures appear in SMILES notation.

The data set in a line: Human HepG2 cell viability assay in 384 well format. Type of data set: toxicity, cell-based. Also on record: dose 125 nL, time 70.5 hour; cytotoxicity at 70.5 h: concentration not given beside the values. The conditions noted are these: HepG2 cells, read-out: Inhibition.
Take `Cc1ccc(CNC(=O)C2c3c(ncn3C(C)C)CCN2S(C)(=O)=O)o1` (stereo not given): the cytotoxicity at 70.5 h was -0.242%.

With `CN1CCCN(C(=O)c2nc3c(n2C)CCN(c2ncccn2)C3)CC1`, the cytotoxicity at 70.5 h was determined as 22.6%.

In the case of `CCOCC1C[C@@H]2OCCN(C(=O)c3ccc[nH]3)[C@H]2C1` (stereo not given in full), the cytotoxicity at 70.5 h was -6.8%.

Turning to `O=C(NCC1CC1)[C@H]1C[C@@H]2CN(C(=O)NCC3CCCCC3)C[C@H]1O2`, the cytotoxicity at 70.5 h is 30.6%.

For `O=C(c1ccc[nH]1)N1CCO[C@H]2CC(COCc3ccccn3)C[C@@H]21` (stereo not given in full), the cytotoxicity at 70.5 h was determined as 2.76%.

On to `CCN(C)C(=O)c1cc(-c2cn(C(C)C)cn2)n2ccccc12`, for which the cytotoxicity at 70.5 h was found to be 26.7%.

Turning to `CCc1cnc(N2CCC3(CC2)CCN(c2cnn(C)c2)C3=O)nc1`, the cytotoxicity at 70.5 h came out at 31.2%.

Turning to `CN1C(=O)CC2(CCN(S(=O)(=O)N(C)C)CC2)c2ccccc21`, the cytotoxicity at 70.5 h amounted to 33.2%.

On to `CN1C(=O)CC2(CCNCC2)c2ccccc21`, for which the cytotoxicity at 70.5 h was determined as 6.26%.

Turning to `CN1C(=O)CC2(CCN(S(=O)(=O)c3cccs3)CC2)c2ccccc21`, the cytotoxicity at 70.5 h is 8.66%.

Take `CN1CCN(CC2CC2)C(=O)C12CCN(c1nccs1)CC2`: the cytotoxicity at 70.5 h stood at 7.83%.

As for `O=C(NC1CC1)c1nc2c(o1)CN(c1ncccn1)C2`, the cytotoxicity at 70.5 h is 1.1%.

Turning to `O=C(N1CCCC1)C12CC(CN1Cc1nccs1)C2`, the cytotoxicity at 70.5 h was -9.99%.

For `CN(C)CCN1CCN(C)C2(CCN(c3nccs3)CC2)C1=O`, the cytotoxicity at 70.5 h is -3.76%.

`O=C(NCC1CC1)C12CC(CN1Cc1nccs1)C2`: the cytotoxicity at 70.5 h was -9.03%.

In the case of `O=C(c1cnccn1)N1C[C@@H](c2ccccc2)[C@@]2(CCNC2=O)C1`, the cytotoxicity at 70.5 h was -4.45%.

`Cc1ccc(CN2CC[C@@H](N(C)C(C)C)[C@@H]2Cc2ccccc2)o1`: the cytotoxicity at 70.5 h worked out at 2.54%.

For the compound `Cc1nc(COCC2CNCc3nccn3C2)cs1` (stereo not given), the cytotoxicity at 70.5 h was determined as 7.13%.

Turning to `CC(=O)N1CC[C@@H]2CN(Cc3cccc(Cl)c3)S(=O)(=O)[C@@H]2CC1`, the cytotoxicity at 70.5 h is -1.91%.

On to `CCS(=O)(=O)N1CCOC2(CCCN(c3cccc(C#N)c3)C2)C1` (stereo not given), for which the cytotoxicity at 70.5 h was -5.28%.

For `Cn1cc(C(=O)N[C@H]2CN(S(C)(=O)=O)[C@@H]3CCCO[C@H]23)cn1`, the cytotoxicity at 70.5 h is -9.45%.

Regarding `CCOCC1CN(C(=O)c2ccco2)Cc2nn(C)cc21` (stereo not given), the cytotoxicity at 70.5 h was -9.75%.

Turning to `CCOCC1CN(C(=O)c2ccsc2)Cc2nn(C)cc21` (stereo not given), the cytotoxicity at 70.5 h was -8.31%.

`O=C(C1=CCCC1)N1C[C@H](OCc2cccnc2)[C@H]2OCCC[C@H]21`: the cytotoxicity at 70.5 h is -9.34%.

`O=C(NCc1cccnc1)C1=NOC2(CCCN(CCO)C2)C1` (stereo not given): the cytotoxicity at 70.5 h was -10.7%.

As for `COCCNC(=O)[C@H]1CC[C@@H]2[C@@H](CCN2S(C)(=O)=O)O1`, the cytotoxicity at 70.5 h was 11.5%.

For the compound `COCCN1C(=O)CO[C@@H]2CN(S(=O)(=O)c3ccccc3)C[C@H]21`, the cytotoxicity at 70.5 h was found to be 5.06%.

With `CCCS(=O)(=O)N1CCc2onc(CNc3ncccn3)c2C1`, the cytotoxicity at 70.5 h turned out to be 6.05%.

In the case of `CCN1CCc2onc(CNc3ncccn3)c2C1`, the cytotoxicity at 70.5 h was found to be 8.16%.

Turning to `CCOCc1ncn2c1CN(S(=O)(=O)c1cccc(C)c1)CC2`, the cytotoxicity at 70.5 h is -1.4%.

Take `Cc1nc(C)c2c(n1)CCN(Cc1ccco1)CC2`: the cytotoxicity at 70.5 h was found to be 2.27%.

As for `CC(C)NC(=O)N1CCC2(COCc3cnc(-c4ccccc4)nc32)C1` (stereo not given), the cytotoxicity at 70.5 h came to 9.3%.

With `c1ccc(-c2cnc3n2CCNC32CCNCC2)cc1`, the cytotoxicity at 70.5 h came out at 43.5%.

As to `Cc1nc(CN2CCOCC23CCN(c2ccc(C#N)cc2)CC3)cs1`, the cytotoxicity at 70.5 h was -2.38%.

As for `CN1CCOCC12CCN(c1ccc(C#N)cc1)CC2`, the cytotoxicity at 70.5 h was -5.69%.

For `CCN1CCOCC12CCN(c1ccc(C#N)cc1)CC2`, the cytotoxicity at 70.5 h is -6.86%.

As for `Cc1ccc(OCC(=O)N2C[C@@H]3CN(C)CCO[C@@H]3C2)cc1`, the cytotoxicity at 70.5 h was -7.41%.

With `COCCN1CCN(c2ccc(C)nn2)Cc2cccnc21`, the cytotoxicity at 70.5 h was -7.28%.

Regarding `O=C(NC1CC2(CCN(CCO)CC2)c2ccccc21)c1ccsc1` (stereo not given), the cytotoxicity at 70.5 h came out at 8.71%.

In the case of `Cc1ccc(N2CCN(C)c3ncccc3C2)nn1`, the cytotoxicity at 70.5 h was -2.98%.

For `COCC1CN(C(=O)COc2ccccc2C)Cc2ncn(C)c21` (stereo not given), the cytotoxicity at 70.5 h is -4.45%.

Consider `COCC1CN(S(=O)(=O)Cc2ccc(C)cc2)Cc2c1cnn2C` (stereo not given), for which the cytotoxicity at 70.5 h is -6.77%.

On to `O=C(NCCN1CCOCC1)c1ccnn1-c1ccc2ccccn12`, for which the cytotoxicity at 70.5 h is 3.81%.

With `CC(C)n1cnc2c1C(C(=O)N(C)C)N(Cc1ccccc1)CC2` (stereo not given), the cytotoxicity at 70.5 h is -3.01%.

Turning to `Cc1occc1C(=O)N1C[C@H]2CCCC(OCc3cccnc3)[C@H]2C1` (stereo not given in full), the cytotoxicity at 70.5 h was -4.67%.

In the case of `Cc1occc1C(=O)N1CCO[C@H]2[C@H](OCc3cccnc3)CC[C@@H]21`, the cytotoxicity at 70.5 h was -8.78%.

In the case of `Cc1ccc(CN2CC[C@H]3O[C@@H](C(=O)N4CCCO4)CC[C@H]32)s1`, the cytotoxicity at 70.5 h is -4%.

In the case of `O=C(NCc1cccnc1)C1=NOC2(CCN(C(=O)N3CCCC3)C2)C1` (stereo not given), the cytotoxicity at 70.5 h is -9.94%.

As for `CCS(=O)(=O)N1CCOC2(CCCN(c3cnccn3)C2)C1` (stereo not given), the cytotoxicity at 70.5 h is -6.84%.

Consider `O=C(c1cnccn1)N1CCO[C@H]2[C@H](OCc3cccnc3)CC[C@@H]21`, for which the cytotoxicity at 70.5 h is -6.93%.

Take `Cn1ccnc1C(=O)N[C@@H]1CN(Cc2cccs2)[C@@H]2CCCO[C@@H]21`: the cytotoxicity at 70.5 h was -14.1%.

For the compound `COCCN1CCN(C(=O)NC2CC2)Cc2ccc(C)nc21`, the cytotoxicity at 70.5 h is -12.1%.

As for `Cc1noc(C)c1CN1CC[C@H]2OCC[C@@H](C(=O)NCC3CC3)[C@H]2C1`, the cytotoxicity at 70.5 h was -8.02%.

In the case of `O=C([C@H]1CC[C@@H]2[C@@H](CCN2Cc2nccs2)O1)N1CCCCO1`, the cytotoxicity at 70.5 h is -5.06%.

With `Cn1cc(C(=O)N[C@@H]2CN(CC3CCOCC3)[C@@H]3CCCO[C@@H]32)cn1`, the cytotoxicity at 70.5 h was -7.22%.

Turning to `Cc1ccc(CN2C[C@@H]3CN(CC4CCOCC4)CCO[C@@H]3C2)s1`, the cytotoxicity at 70.5 h came to 8.99%.

As to `CCc1cnc(N2C[C@H](OCc3csc(C)n3)[C@H]3COC[C@H]32)nc1`, the cytotoxicity at 70.5 h is 2.07%.

Turning to `CCN(C)c1ncc2c(c1C(=O)O)CCN(C1CCOC1)C2` (stereo not given), the cytotoxicity at 70.5 h came out at 0.989%.

Consider `Cn1cc(CN2C[C@@H](NC(=O)c3cscn3)[C@H]3OCCC[C@H]32)cn1`, for which the cytotoxicity at 70.5 h was -8.57%.

Regarding `c1cnc(N2CCCC3(CN(CC4CCOCC4)CCO3)C2)cn1` (stereo not given), the cytotoxicity at 70.5 h was -3.73%.

Consider `Cn1cc(C(=O)N[C@@H]2CN(Cc3cccnc3)[C@@H]3CCCO[C@@H]32)cn1`, for which the cytotoxicity at 70.5 h is -4.29%.

With `Cn1cc(CN2CC[C@H]3O[C@@H](C(=O)NC4CC4)CC[C@H]32)cn1`, the cytotoxicity at 70.5 h is -1.4%.

Regarding `CN(Cc1ccco1)C[C@H]1OC[C@@H]2CCN(Cc3ccsc3)C[C@@H]21`, the cytotoxicity at 70.5 h was -7.38%.

Consider `Cc1cccc(CO[C@@H]2C[C@H]3CN(c4ncccn4)CCN3C2)n1`, for which the cytotoxicity at 70.5 h is -1.58%.

With `CN(Cc1ccco1)C[C@H]1OC[C@@H]2CCN(Cc3ccncc3)C[C@@H]21`, the cytotoxicity at 70.5 h stood at 15.7%.
